Data: patent publication US10334845B2, “Olfactory ligands” (University College Cardiff Consultants Limited, priority 2015, dated 2019)
Several values for one entry are separate records, joined by “and”; a condition that tells them apart may be missing. Equal entries are not always repeated.

Tests used:
[1] = tested on: grain aphids, Sitobion avenae; assay: Behavioural assay, four-arm olfactometer; assay type: in vivo; details: for Time spent in control arms (mean of 3) / Time spent in treatment arm: mean (SE), 16 min, 10 replicates; for Insect repellent / attractant activity (in words): summary statement
Method: The responses of individual grain aphids, Sitobion avenae, to test compounds were observed using a Perspex four-arm olfactometer (Pettersson, J.; Ent. Scand. 1, 63-73 (1970); Webster, B., et al. Animal Behav. 79, 451-457 (2010)), which was maintained at 23° C. and lit from above. A filter paper disc was laid in the bottom section of the olfactometer to provide traction for the aphid and the middle and top sections were fitted into place very tightly to give a good seal. The four arms, consisting of the barrels of disposable 10 mL syringes (Plastipak), were fitted tightly into the holes of the middle section, and filtered air was drawn through them and into the body of the olfactometer through a tube inserted into a hole in the centre of the top section and attached to a pump. The measured total flow rate was 200 mL/min and it was assumed that the flow rate through each arm was 50 mL/min. The three control arms each contained a filter paper strip to which had been applied 10 µL hexane which had been allowed to evaporate for 30 s. The treatment arm contained a filter paper strip to which the test compound in 10 μL of hexane (20-200 ng μL^−1) had been applied and left for 30 s for the hexane to evaporate. A single aphid was introduced through the central hole and the suction tube quickly reinserted. The time spent in each arm and in the central zone were recorded, using specialist software (OLFA, Udine, Italy), for the next 16 minutes. The olfactometer was rotated through 90° every 2 min to eliminate any directional bias. Each assay comprised 10 replicates and the mean time spent in treated and control arms were compared using a paired t-test (Genstat).
Data were recorded as mean (±SE) time spent in control (solvent only) or treatment arms and were analysed using Students T-test.

[2] = tested on: grain aphid (Sitobion avenae); details: background statement; cited from earlier work

Structure (SMILES) | Time spent in treatment arm ([1]; dose 1.0 μg) | Time spent in control arms (mean of 3) ([1]; dose 2.0 μg) | Time spent in treatment arm ([1]; dose 2.0 μg) | Time spent in control arms (mean of 3) ([1]; dose 1.0 μg) | other results
C=C1/C=C/[C@H](C(C)C)CC/C(C)=C/CC1 [Comparator Compound Ia, (S)-germacrene D] | 1.63 (0.35) min | 2.29 (0.41) min | 0.50 (0.14) min |  | Time spent in control arms (mean of 3) ([1]; dose 0.2 μg): 2.31 (0.26) min; Time spent in treatment arm ([1]; dose 0.2 μg): 1.14 (0.25) min
C=C1C=C[C@H](C(C)CC)CCC(C)=CCC1 (stereo partly drawn) [Comparator Compound Ib, (S)-12-methylgermacrene D] |  |  |  |  | Time spent in control arms (mean of 3) ([1]; dose 0.9 μg): 2.21 (0.42) min; Time spent in treatment arm ([1]; dose 0.9 μg): 1.20 (0.24) min; Time spent in control arms (mean of 3) ([1]; dose 1.2 μg): 2.66 (0.17) min; Time spent in treatment arm ([1]; dose 1.2 μg): 2.13 (0.25) min
C=C1C=C[C@H](C(C)C)CCC(CC)=CCC1 [Comparator Compound Ic, (S)-14-methylgermacrene D] | 3.27 (0.68) min | 2.01 (0.23) min | 1.65 (0.39) min | 2.61 (0.28) min | Time spent in control arms (mean of 3) ([1]; dose 0.2 μg): 2.21 (0.27) min; Time spent in treatment arm ([1]; dose 0.2 μg): 2.41 (0.73) min
C=C1C=C[C@H](C(C)C)CCC(C)=C(F)CC1 [Comparator Compound Ih, (S)-1-fluorogermacrene D] | 2.62 (0.50) min | 2.60 (0.26) min | 2.46 (0.39) min | 2.54 (0.27) min | 
CC=C1C=C[C@H](C(C)C)CCC(C)=CCC1 [Compound If, (S)-15-methylgermacrene D] | 1.92 (0.31) min |  |  | 2.52 (0.23) min | Time spent in control arms (mean of 3) ([1]; dose 0.8 μg): 2.61 (0.26) min; Time spent in treatment arm ([1]; dose 0.8 μg): 1.38 (0.38) min; Insect repellent / attractant activity (in words) [1]: much greater insect repellent activity
CC=C1C=C[C@H](C(C)C)CCC(CC)=CCC1 [Compound Ig, (S)-14,15-dimethylgermacrene D] | 2.77 (0.31) min and 2.97 (0.40) min |  |  | 2.27 (0.11) min and 2.39 (0.20) min | Time spent in control arms (mean of 3) ([1]; dose 0.8 μg): 2.60 (0.22) min; Time spent in treatment arm ([1]; dose 0.8 μg): 3.38 (0.38) min; Time spent in control arms (mean of 3) ([1]; dose 1.2 μg): 1.96 (0.21) min; Time spent in treatment arm ([1]; dose 1.2 μg): 2.92 (0.23) min; Insect repellent / attractant activity (in words) [1]: strong insect attractant properties
C=C1/C=C/[C@H](C(C)C)CC/C(C)=C/CC1 [Germacrene D] |  |  |  |  | Insect repellent activity (in words) [2]: repel insects
C=C1/C=C/[C@@H](C(C)C)CC/C(C)=C/CC1 [III, (R)-germacrene D] | 3.15 (0.53) min | 1.86 (0.29) min | 2.65 (0.52) min | 2.57 (0.19) min | 
CC1CCCC(C)CCC(C(C)C)CC1 (stereo not shown) [IV, germacrane] | 2.04 (0.58) min | 2.39 (0.24) min | 2.38 (0.50) min | 2.45 (0.30) min | 
